# Assay results from PubChem BioAssay (NCI).
#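 Briefly, cells in 96-well plates were exposed to five compound concentrations for 48 h, and endpoints were estimated by linear interpolation. At the GI50, growth is halved. TGI is the concentration that stops growth completely.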
# Legend:
# Assay in all cases: NCI-60 cell line screen, 48 h
# [1] = test system: EKVX NSCLC
# [2] = test system: OVCAR-4 ovarian
# [3] = test system: OVCAR-5 ovarian
# [4] = test system: SN12C renal
# [5] = test system: SK-MEL-5 melanoma
# [6] = test system: RPMI-8226 leukemia
# [7] = test system: SNB-75 CNS
# [8] = test system: SK-OV-3 ovarian
# [9] = test system: HOP-62 NSCLC
# [10] = test system: 786-0 renal
SMILES,TGI [1],TGI [2],TGI [3],TGI [4],TGI [5],TGI [6],TGI [7],TGI [8],TGI [9],TGI [10],GI50 [1],GI50 [2],GI50 [3],GI50 [4],GI50 [5],GI50 [6],GI50 [7],GI50 [8],GI50 [9],GI50 [10]
CN(C)Cc1ccc(O)c(CN(C)C)n1,> 100 µM,> 100 µM,> 100 µM,> 100 µM,> 100 µM,> 100 µM,> 100 µM,> 100 µM,> 100 µM,> 100 µM,–,–,–,–,–,–,–,–,–,–
Nc1nc2c(ncn2C2OC(CO)C(O)C2O)c(=O)o1 (stereo not given),> 100 µM,> 100 µM,> 100 µM,> 100 µM,> 100 µM,> 100 µM,> 100 µM,> 100 µM,> 100 µM,> 100 µM,–,–,–,–,–,–,–,–,–,–
CCCCN(CCCC)CC(C(=O)Nc1ccc([N+](=O)[O-])cc1[N+](=O)[O-])/C(C)=N\NC(=O)c1ccncc1 (stereo not given),> 100 µM,> 100 µM,> 100 µM,> 100 µM,> 100 µM,> 100 µM,> 100 µM,> 100 µM,> 100 µM,> 100 µM,–,–,–,–,–,–,–,–,–,–
NC(=S)N/N=C/C(O[C@@H](/C=N/NC(N)=S)CO)n1cnc2c(N)ncnc21 (stereo not given in full),> 100 µM,> 100 µM,> 100 µM,> 100 µM,> 100 µM,> 72.7 µM,> 100 µM,> 100 µM,> 100 µM,> 100 µM,–,–,–,–,–,–,–,–,–,–
C/C(=C\CNc1ncnc2c1ncn2C1CCCCO1)COP(=O)(O)O (stereo not given),> 100 µM,> 100 µM,> 100 µM,> 100 µM,> 100 µM,> 100 µM,> 100 µM,> 100 µM,> 100 µM,> 100 µM,–,–,–,–,–,–,–,–,–,–
COc1cccc(N2C(=N)/C(=C3\Nc4ccccc4S3)CC2=O)c1,> 100 µM,71.9 µM,> 100 µM,> 100 µM,> 100 µM,> 100 µM,57.3 µM,> 100 µM,28.1 µM,> 100 µM,> 100 µM,12.1 µM,> 100 µM,> 100 µM,7.78 µM,2.73 µM,10.3 µM,1.77 µM,2.73 µM,4.91 µM
Cc1ccc2c(-c3ccnc(Nc4cccc(C(F)(F)F)c4)n3)c(-c3ccccc3)nn2n1,> 25 µM,> 25 µM,24.6 µM,> 15.5 µM,7.94 µM,> 25 µM,> 25 µM,> 15.8 µM,> 25 µM,> 15.1 µM,10.5 µM,12 µM,10.2 µM,3.82 µM,4.05 µM,> 14.2 µM,3.87 µM,0.597 µM,14.4 µM,4.67 µM
CCOC(=O)C(Cc1ccccc1)n1c(O)c(/C=N/c2ncc(Cc3ccc(Cl)cc3Cl)s2)sc1=S (stereo not given),> 100 µM,> 100 µM,> 100 µM,> 100 µM,4.13 µM,> 100 µM,21.4 µM,11.8 µM,8.12 µM,> 100 µM,2.07 µM,3.22 µM,4.2 µM,1.59 µM,1.52 µM,2.12 µM,2.81 µM,2.38 µM,2.69 µM,3.15 µM
N#CC(Cl)CS(=O)(=O)c1ccccc1 (stereo not given),38.6 µM,4.24 µM,35.3 µM,31.7 µM,29.6 µM,14.1 µM,37.1 µM,33.6 µM,> 59.1 µM,30.5 µM,–,–,–,–,–,–,–,–,–,–
CCP(C)(=O)CC,> 100 µM,> 100 µM,> 100 µM,> 100 µM,> 100 µM,> 100 µM,> 100 µM,> 100 µM,> 100 µM,> 100 µM,–,–,–,–,–,–,–,–,–,–
Cc1cc(NS(=O)(=O)c2ccc(-c3cnc(C4CC4)o3)cc2)ccc1Cl,17.1 µM,19.5 µM,15 µM,13.9 µM,11.5 µM,> 52.1 µM,0.643 µM,20.8 µM,17 µM,17.8 µM,0.557 µM,1.86 µM,0.748 µM,0.961 µM,0.253 µM,0.329 µM,0.12 µM,0.868 µM,0.313 µM,0.605 µM
CC(C)(C)c1cc(Cc2ccc(S(C)(=O)=O)cc2)c(O)c(C(C)(C)C)c1,28.4 µM,28.1 µM,27.4 µM,28.6 µM,30 µM,25.8 µM,28 µM,36.2 µM,29.8 µM,29.6 µM,–,–,–,–,–,–,–,–,–,–
COc1cc2c3c(n(CCCNCCCCN)c(=O)c2cc1OC)-c1cc2c(cc1C3=O)OCO2,42.7 µM,29.9 µM,41 µM,5.89 µM,19.2 µM,13.1 µM,32.2 µM,> 46.6 µM,32.5 µM,20.5 µM,18.6 µM,7.31 µM,13.5 µM,0.373 µM,2.95 µM,0.355 µM,10.7 µM,9.15 µM,0.836 µM,2.27 µM
